Assay [1] relates to Megaloblastic Bone Marrow Cells (B12 Deficiency). Conditions: cited from earlier work.
Assay [2] has as its system Megaloblastic Bone Marrow Cells (Folate Deficiency). Conditions: cited from earlier work.
The conditions of assay [3]: apparently healthy human subjects; cited from earlier work.
A short description of assay [4]: Evaluation of NHANES 1999-2002 data: hematological markers by serum folate decile, supplement use and unmetabolized folic acid. The class given is in vivo, human. The following applies: for effect on production of hemoglobin: seniors aged >=60 y, serum hemoglobin with rising serum folate, with or without unmetabolized folic acid; for impact on homocysteine, methylmalonic acid and lactate dehydrogenase: when homocysteine or lactate dehydrogenase levels are elevated; for effect on MCV: with rising serum folate, with or without supplement use. From the text:
An evaluation of data gathered through NHANES was undertaken to determine the effect of unmetabolized folic acid on serum hemoglobin concentrations. NHANES monitors the nation's health and nutritional status. The survey is currently implemented as a continuous annual survey and uses a complex multistage probability design to select a representative sample of the non-institutionalized US civilian population. Consistent with NHANES analytic guidelines, this example combines data from two separate survey periods spanning 1999-2002. The methods used herein are described in greater detail in Morris et al., AM. J. CLIN. NUTR. 2012; 91:1733-44, and are repeated herein for a more thorough understanding. A detailed description of blood collection and processing can be found in the NHANES Laboratory Procedures Manual. This particular example focuses on seniors (i.e., those aged ≧60 y), and included 3706 senior survey participants. Hemoglobin concentrations were measured at the MEC laboratory by using a MAXM hematology flow cytometer (Beckman Coulter Inc, Fullerton, Calif.). Detailed methods for all the biochemical assays can be found in the NHANES Laboratory Procedures Manuals. Eligible participants were divided into ten […] based on their serum folate concentrations, so that decile 1 includes the 10% of the participants having the lowest serum folate concentrations, decile 10 includes the 10% of the participants having the highest serum folate concentrations. etc. Participants in each decile were then further subdivided based on the detection of unmetabolized folic acid, and/or the participant's serum B12 or serum iron concentration, and mean hemoglobin concentrations calculated for each decile. Data analyses were performed by using SUDAAN release 9.0 (Research Triangle Institute, Research Triangle Park, N.C.) with appropriate sampling weights, pseudo primary sampling units, and stratification variables to account for the survey's complex sampling design.

Assay [5] is described as follows: Reanalysis of NHANES 1988-1994 vs 1999-2004: impact of folic acid supplement use on anemia and macrocytosis. Format: in vivo, human. Conditions: men; 1988-1994 to 1999-2004, with increased use of folic acid supplements. The source says: In order to determine whether folic acid supplements could be affecting the incidence of macrocytosis in the United States or whether folic acid supplements could be negatively influencing macrocytic processes, NHANES data reported in Ganji et al., AM. J. CLIN. NUTR. 2009; 89:363-71, were reanalyzed, this time over an extended time period from 1988-1994 until 1999-2004, to determine the impact of supplement use on the incidence of macrocytosis and mean corpuscular volume. Unless otherwise indicated, NHANES data collection methods were substantially the same as in Examples 1 and 2. This study used data from 4 surveys: NHANES 1988-1994, NHANES 1999-2000, NHANES 2001-2002, and NHANES 2003-2004. […] For NHANES 1988-1994 and 1999-2004, multivariate-adjusted and univariate values for hemoglobin, hematocrit, and MCV and prevalence rates (%) for overall anemia and macrocytosis were determined according to sex, race-ethnicity, age, poverty, and vitamin/mineral supplement use (yes or no). Prevalence of anemia (%) based on low hemoglobin concentrations and prevalence of macrocytosis (%) based on high MCV values were determined for the aforementioned demographic categories. The differences in hemoglobin, hematocrit, MCV, and prevalence of anemia and macrocytosis between NHANES 1988-1994 and NHANES 1999-2004 were determined with a 2-tailed unpaired t test. […]

The mark [6] stands for this setting: B12 deficiency, concentration 0.3 (unit not given).
[7] abbreviates: B12 deficiency, concentration 1 (unit not given).
Setting [8] is: B12 deficiency, concentration 3 (unit not given).
[9] abbreviates: B12 deficiency, concentration 6 (unit not given).
Setting [10] is: B12 deficiency, concentration 15 (unit not given).
Where [11] appears, read: B12 deficiency, concentration 30 (unit not given).
[12] abbreviates: concentration 0.3 (unit not given).
Setting [13] is: concentration 1 (unit not given).
Setting [14] is: concentration 3 (unit not given).
Setting [15] is: concentration 6 (unit not given).
Where [16] appears, read: concentration 30 (unit not given).
Where [17] appears, read: B12 deficiency, concentration 75 (unit not given).
The mark [18] stands for this setting: B12 deficiency, concentration 300 (unit not given).
The mark [19] stands for this setting: concentration 15 (unit not given).
[20] abbreviates: concentration 300 (unit not given).

Like-named read-outs stand apart in the source and are kept apart here. Bounds are passed on as bounds.

In the case of `Nc1nc(=O)c2c([nH]1)NCC(CNc1ccc(C(=O)N[C@@H](CCC(=O)O)C(=O)O)cc1)N2C=O` (mixture of isomers) [folinic acid], the “dU suppression test value” was 4.5% in assay [1] (setting [6]); 2.5% in assay [1] (setting [7]); 1.9% in assay [1] (setting [8]); 2.0% in assay [1] (setting [9]); 2.2% in assay [1] (setting [10]); 1.6% in assay [1] (setting [11]). For the same compound, the “dU suppression test value” in assay [2] (setting [12]) is 3.4%; in assay [2] (setting [13]) it was 1.9%; in assay [2] (setting [14]) it was 1.9%; in assay [2] (setting [15]) it was 1.3%; in assay [2] (setting [16]), 1.0%. Besides, the “effectiveness in overcoming the defect in DNA precursor synthesis” value in assay [1] (all types of vitamin deficiency) is recorded as “most effective”.
With tetrahydrofolate [THF], the “dU suppression test value” in assay [1] (setting [6]) is reported as 10.8%; in assay [1] (setting [7]), 8.1%; in assay [1] (setting [8]) it was 9.3%; in assay [1] (setting [9]), 6.3%; in assay [1] (setting [10]), 4.9%; in assay [1] (setting [11]), 5.0%. The “dU suppression test value” in assay [1] (setting [17]) is 3.5%; in assay [1] (setting [18]), 2.4%; in assay [2] (setting [12]), 14.3%; in assay [2] (setting [13]), 8.6%; in assay [2] (setting [14]), 4.0%; in assay [2] (setting [15]), 2.5%. In addition, the “dU suppression test value” in assay [2] (setting [19]) is recorded as 2.1%; in assay [2] (setting [16]), 2.2%; in assay [2] (setting [20]), 1.9%. In addition, in assay [1] (megaloblastic anemia due to vitamin B12 deficiency), the “level giving correction of dU suppression” value is on record as “above 6 mL/ml”.
Take `CN1c2c(nc(N)[nH]c2=O)NC[C@@H]1CNc1ccc(C(=O)N[C@@H](CCC(=O)[O-])C(=O)[O-])cc1.[Ca+2]` [me-THF, L-5-methyltetrahydrofolate]: in assay [3], the “effect on homocysteine levels” value is “decrease homocysteine levels”. The “dU suppression test value” in assay [1] (setting [8]) is recorded as 16.1%; in assay [1] (setting [11]), 12.9%; in assay [1] (setting [17]), 18.4%; in assay [1] (setting [18]), 15.7%; in assay [2] (setting [14]), 3.9%; in assay [2] (setting [15]) it was 4.6%. For the same compound, the “dU suppression test value” is listed as 2.7% in assay [2] (setting [19]), 4.5% in assay [2] (setting [16]) and 4.3% in assay [2] (setting [20]). The “concentration restoring normal dU suppression” value in assay [1] (vitamin B12 deficiency) is over 300 µg/mL. The “effect on production of hemoglobin” value in assay [4] is listed as “promotes the production of hemoglobin”. Further, the “impact on homocysteine, methylmalonic acid and lactate dehydrogenase” value in assay [4] was “positive impact”. Further, in assay [4], the “effect on MCV” value is reported as “generally leads to a reduction in MCV”.
On to `Nc1nc2ncc(CNc3ccc(C(=O)N[C@@H](CCC(=O)O)C(=O)O)cc3)nc2c(=O)[nH]1` [folic acid], for which the “dU suppression test value” in assay [1] (setting [7]) is listed as 14.8%; in assay [1] (setting [8]), 12%; in assay [1] (B12 deficiency, concentration 50 (unit not given)), 4.1%; in assay [2] (setting [13]), 10.3%; in assay [2] (concentration 5 (unit not given)), 5.5%; in assay [2] (concentration 50 (unit not given)), 2.3%. Further, the incidence of macrocytosis result in assay [5] was “increased”. Further, the prevalence of anemia result in assay [5] is reported as “dropped”. The “effect on MCV in survey participants with elevated LDH levels” value in assay [4] (LDH > 198 U/L, as folate concentrations increased) was “increased the MCV”. Also, the “effect on red cell count” value in assay [4] (same folate levels, with vs without folic acid supplements) is “red cell count is improved in the absence of folic acid”. For the same compound, the “effect on production of hemoglobin” value in assay [4] is “reduces the production of hemoglobin”. Besides, in assay [4], the “impact on homocysteine, methylmalonic acid and lactate dehydrogenase” value was “negative impact”. The “effect on MCV” value in assay [4] is reported as “leads to increases in MCV”.
On to “α-(5,6-dimethylbenzimidazolyl)cobamide [B12]”, for which the “dU suppression test value” is recorded as 5.8% in assay [1] (B12 deficiency, 10 mcg/ml); 12.3% in assay [2] (10 mcg/ml); 16.3% in assay [2] (100 mcg/ml). Besides, the “dU suppression test value ((3H)-TdR incorporation with dU as percentage of incorporation without dU)” value in assay [1] (B12 deficiency, 100 mcg/ml) was 5.7%.
